Reference: patent publication US20140271649A1, “METHODS AND COMPOSITIONS FOR INHIBITING STAPHYLOCOCCUS AGGLUTINATION IN BLOOD” (The University of Chicago, priority 2011, published 2014)

Columns and labels:
S. aureus Newman [1] = assay: Agglutination assay in plasma, S. aureus Newman; format: cell-based, Staphylococcus aureus; details: argatroban treatment, increasing concentrations
Protocol: Agglutination assay. Overnight cultures of staphylococcal strains were washed in 1 mL 0.85% NaCl and suspended to a final concentration of OD600 4.0 in 1 mL. Bacteria were incubated with 1:500 Syto9 (Invitrogen) for 15 minutes, washed with 1 mL 0.85% NaCl, and suspended in 1 mL saline. Bacteria were mixed 1:1 with EDTA-chelated rabbit plasma (Becton, Dickinson) on a glass microscope slide and incubated for 15 minutes. Samples were viewed and images captured on an Olympus Provis microscope using a 40× objective. For quantification of agglutination, plasma and bacteria were inoculated onto polystyrene C-Chip disposable hemocytometer slides (IN-CYTO). […] For analysis, the largest aggregate in each field of view was outlined in ImageJ and the area of that aggregate measured. Mean area of S. aureus aggregates were determined and normalized by subtracting Newman in saline without plasma from all values. Percent agglutination was calculated by normalizing all mean intensity values to S. aureus Newman in plasma. […] Fold change in agglutination was calculated as the ratio of mean bacterial aggregation area in the presence of antibody compared to control. Statistical significance, P<0.05, was determined by one way analysis of variance (ANOVA), with Dunnett's multiple comparison analysis for post-hoc testing using GraphPad Prism software. […]

S. aureus N315 [2] = assay: Agglutination assay in plasma, MRSA N315; format: cell-based, Staphylococcus aureus; details: argatroban (1 mg/mL), OD550 after two hours
S. aureus MW2 [3] = assay: Agglutination assay in plasma, MRSA MW2; format: cell-based, Staphylococcus aureus; details: argatroban (1 mg/mL), OD550 after two hours
human alpha-thrombin = human alpha-thrombin (Homo sapiens, UniProt P00734); assay: Coagulase activity control: fibrinogen to fibrin conversion by thrombin; format: biochemical; details: 200 ng argatroban, absorbance at 450 nm, compared to mock control
Protocol: (§1) Coagulase activity. Purified recombinant Coa or vWbp (100 nM) were mixed with human prothrombin (Innovative Research) in 1% sodium-citrate/PBS. After an initial reading, fibrinogen (3 μM) (Sigma) was added and conversion of fibrinogen to fibrin was measured as an increase in turbidity at 450 nm in a plate reader (BioTek) at 2.5 min intervals. As controls, the enzymatic activity of human alpha-thrombin (Innovative Research) or prothombin alone were measured. Argatroban (200 ng, Novaplus) was added to reactions prior to the addition of fibrinogen.

Coa-prothrombin [4] = assay: Coagulase activity: fibrinogen to fibrin conversion by Coa-prothrombin; format: biochemical, S. aureus / human; details: 200 ng argatroban, absorbance at 450 nm
Protocol: as §1

vWbp-prothrombin = target: T1, vWbp-prothrombin (Homo sapiens, UniProt P00734); assay: Coagulase activity: fibrinogen to fibrin conversion by vWbp-prothrombin; format: biochemical, S. aureus / human; details: 200 ng argatroban, absorbance at 450 nm
T1 construct: purchased Innovative Research (prothrombin); host or cells: vWbp made in house in E. coli BL21(DE3), Ni-NTA purified
Protocol: as §1

Coa-prothrombin [5] = details: literature (Hijikata-Okunomiya and Kataoka, 2003; Vanassche et al., 2010); cited from earlier work
S. aureus Newman [6] = assay: Mouse sepsis survival, S. aureus Newman challenge; format: in vivo, BALB/c mice; details: 10 mg/kg i.p. in 12 hour intervals, mock treated died within 60 hours
S. aureus coa/vwb mutant = assay: Mouse sepsis survival, S. aureus coa/vwb mutant challenge; format: in vivo, BALB/c mice; details: 10 mg/kg i.p. every 12 h, vs mock
Protocol: (§2) Sepsis. Overnight cultures of staphylococcal strains were diluted 1:100 into fresh TSB and grown until they reached an OD600 of 0.4. Bacteria were centrifuged at 7,000×g, washed, and suspended in the one-tenth volume of PBS. Six week-old female BALB/c mice (n=15) (Charles River) were injected retro-orbitally with 1×10^8 CFU (S. aureus Newman, MW2, and N315) or 5×10^7 CFU (S. aureus USA300) suspensions in 100 μl of PBS. Mice were monitored for survival over 10 days. To enumerate staphylococcal load in heart tissue twelve hours post-infection, mice were euthanized by CO2 asphyxyation and hearts were removed during necropsy. Heart tissue was homogenized in PBS, 0.1% Triton X-100. Serial dilutions of homogenate were spread on TSA and incubated for colony formation. The bacterial load in organ tissue was analyzed in pairwise comparisons between wild-type and mutant strains with the unpaired two-tailed Student's t-test. For histopathology, mice infected with S. aureus were euthanized 12 hours after infection. Hearts were removed during necropsy and fixed in 10% formalin for 24 hours at room temperature. […] Data were analyzed in pairwise comparisons between wild-type and mutant strains with the unpaired two-tailed Student's t-test. […]
(§3) Dabigatran etexilate treatment. […] Thrombin time was measured on a STA-R analyzer (Diagnostica Stago).

S. aureus USA300 LAC = assay: Mouse sepsis survival, S. aureus USA300 LAC challenge; format: in vivo, BALB/c mice; details: 10 mg/kg i.p. every 12 h; lethal dose S. aureus USA300 LAC; vs mock
Protocol: as §2, §3

clfA mutant S. aureus = assay: Mouse sepsis survival, clfA mutant challenge; format: in vivo, BALB/c mice
Protocol: as §2, §3

clfA (pclfA) variant = assay: Mouse sepsis survival, clfA (pclfA) variant challenge; format: in vivo, BALB/c mice
Protocol: as §2, §3

S. aureus Newman [7] = assay: Heart tissue histopathology 12 hours after S. aureus Newman infection; format: in vivo, BALB/c mice
S. aureus N315 [8] = assay: Mouse sepsis survival, MRSA N315 challenge; format: in vivo, BALB/c mice; details: lethal challenge S. aureus N315; Dbg 10 mg/kg, antibodies 5 mg/kg
S. aureus MW2 [9] = assay: Mouse sepsis survival, MRSA MW2 challenge; format: in vivo, BALB/c mice; details: lethal challenge S. aureus MW2; Dbg 10 mg/kg, antibodies 5 mg/kg
[10] = in vivo, sc; cited from earlier work
[11] = Serum IgG after active immunization (ELISA); format: in vivo, BALB/c mice; details: 50 μg protein in CFA, boost in IFA

Molecule: CC1CNc2c(cccc2S(=O)(=O)N[C@@H](CCCNC(=N)N)C(=O)N2CC[C@@H](C)C[C@@H]2C(=O)O)C1 (some centres unmarked) [argatroban]
- agglutination of S. aureus Newman in plasma (S. aureus Newman [1]): interfered with the agglutination
- agglutination of S. aureus N315 in EDTA-plasma (S. aureus N315 [2]): inhibited
- agglutination of S. aureus MW2 in EDTA-plasma (S. aureus MW2 [3]): inhibited
- conversion of fibrinogen to fibrin by thrombin (human alpha-thrombin): blocked
- conversion of fibrinogen to fibrin by Coa-prothrombin (Coa-prothrombin [4]): blocked
- conversion of fibrinogen to fibrin by vWb-prothrombin (vWbp-prothrombin): blocked
- inhibition of the proteolytically active Coa-prothrombin complex (Coa-prothrombin [5]): inhibit

Molecule: CCCCCCOC(=O)N=C(N)c1ccc(NCc2nc3cc(C(=O)N(CCC(=O)OCC)c4ccccn4)ccc3n2C)cc1 [dabigatran-etexilate]
- survival after challenge (S. aureus Newman [6]): up to 132 hours
- survival or time-to-death (S. aureus coa/vwb mutant): no effect
- survival of septic mice (S. aureus USA300 LAC): prolonged the survival
- survival and time-to-death (clfA mutant S. aureus; clfA mutant challenge compared to control strain harboring pclfA): increased the survival and time-to-death
- disease outcome (clfA mutant S. aureus; clfA mutant challenge compared to mock treated mice): further improved the disease outcome
- benefit from treatment (time-to-death) (clfA (pclfA) variant): benefited
- agglutination of staphylococcus in heart tissue (S. aureus Newman [7]; dabigatran-etexilate treatment, S. aureus Newman, 12 hours, histopathology): reduced agglutination

Molecule: [H]/N=C(/N)c1ccc(NCc2nc3cc(C(=O)N(CCC(=O)O)c4ccccn4)ccc3n2C)cc1 [dabigatran]
- time-to-death / survival during sepsis (S. aureus N315 [8]): did not prolong the survival
- time-to-death / survival during sepsis (S. aureus MW2 [9]): did not prolong the survival
- inhibition of the proteolytically active Coa-prothrombin complex (Coa-prothrombin [5]): inhibit

Molecule: N=C(N)c1ccc(CNC(=O)[C@@H]2CCN2C(=O)[C@H](NCC(=O)O)C2CCCCC2)cc1 [melagatran]
- dose at which toxicity began [10]: over 5 mg

Molecule: ClfA: purified recombinant S. aureus clumping factor A; used in binding assay and as antigen for active immunization
- frequency of heart lesions (S. aureus Newman [7]; active immunization, challenged twelve hours with wild-type S. aureus Newman): reduced the frequency of heart lesions
- specific IgG antibodies after active immunization [11]: raised specific IgG antibodies
